Results: US20080064027A1, “TEL/Etv6-mediated inhibition of cell proliferation” (priority 2002, published 2008)
Values joined by “and” are separate entries in the source; they are usually repeats but may differ in a detail not shown here. Identical values can stand only once. Like-named read-outs stand apart in the source and are kept apart here.

System: Stat3-ER expressing A375 cells
Assay type: cell-based
Description: In order to understand Stat3's ability to affect cell proliferation and cell death, we have examined the profile of genes expressed upon Stat3 activation in A375 cells using oligonucleotide microarrays.
Briefly, microarray analysis was performed using HG U95A GeneChips™ (Affymetrix, Santa Clara, USA) essentially according to the manufacturer's instructions. […] RNA from three independent experiments was pooled and biotin-labeled cRNA probes were generated from each sample starting from 10 μg of total cellular RNA. The resulting biotinylated cRNAs were hybridized to the Affymetrix U95A oligonucleotide array containing more than 12,000 sequences and signals detected. Chip analysis was performed using the Affymetrix Microarray Suite v5 (target intensity 500 used for chip scaling) and GeneSpring 4.2.1 (Silicon Genetics). Changes in gene expression were assessed by looking for concordant changes between replicates using a signed Wilcoxon rank test (as recommended by Affymetrix).

oncostatin M [OSM]
expression change (fold): H. sapiens mRNA; cDNA DZFZp586N012: 1.5 and 1.6 | expression change (fold): Absent in melanoma 2 (Avge of clones): 2.9 | expression change (fold): Alpha-1-antichymotrypsin precursor (Avge of clones): 2.8 | expression change (fold): Aquaporin 3 (Avge of clones): 4.1 | expression change (fold): Brain-derived neurotrophic factor (Avge of clones): 4.8 | expression change (fold): CCAAT/enhancer binding protein (C/EBP), delta (Avge of clones): 2.7 | expression change (fold): Cathepsin L (Avge of clones): 2.8 | expression change (fold): Cytokine receptor-like factor 1 (Avge of clones): 1.9 | expression change (fold): Death-associated protein kinase 1 (Avge of clones): 5.2 | expression change (fold): Ephrin A1 precursor (Avge of clones): 2.1 | expression change (fold): Ets variant gene 6 (Avge of clones): 3.9 | expression change (fold): Fibronectin (Avge of clones): 2.0 | expression change (fold): Fibronectin 1, isoform 1 preproprotein (Avge of clones): 1.6 | expression change (fold): Glycine dehydrogenase (decarboxylating, glycine decdarboxylase, glycine cleavage system protein P) (Avge of clones): 2.5 | expression change (fold): I factor (complement) (Avge of clones): 2.3 | expression change (fold): Insulin-like growth factor binding protein 3 (Avge of clones): 2.4 | expression change (fold): Intercellular adhesion molecule 1 precursor (Avge of clones): 1.9 | expression change (fold): Interferon induced transmembrane protein 1 (9-27) (Avge of clones): 1.4 | expression change (fold): Interleukin 8 (Avge of clones): 0.5 | expression change (fold): Jun B proto-oncogene (Avge of clones): 2.5 | expression change (fold): KIAA0161 gene product (Avge of clones): 1.6 | expression change (fold): KIAA0303 protein (Avge of clones): 3.5 | expression change (fold): KIAA0500 protein (Avge of clones): 3.0 | expression change (fold): Killer cell lectin-like receptor subfamily C, member 2 (Avge of clones): 2.7 | expression change (fold): Killer cell lectin-like receptor subfamily C, member 3 isoform NKG2-E (Avge of clones): 3.6 | expression change (fold): Kynureninase (L-kynurenine hydrolase) (Avge of clones): 2.2 | expression change (fold): MHC class II transactivator (Avge of clones): 3.0 | expression change (fold): MHC, class II, DQ alpha 1 precursor (Avge of clones): 2.4 | expression change (fold): MHC, class II, DQ beta 1 (Avge of clones): 2.5 | expression change (fold): Major vault protein (Avge of clones): 2.7 | expression change (fold): Nicotinamide N-methyltransferase (Avge of clones): 2.4 | expression change (fold): Niemann-Pick disease, type C1 (Avge of clones): 2.1 | expression change (fold): Oncostatin M receptor (Avge of clones): 2.0 | expression change (fold): Osteoprotegrin (Avge of clones): 2.9 | expression change (fold): Prostatic acid phosphatase precursor (Avge of clones): 7.4 | expression change (fold): Ras-induced senescence 1 (Avge of clones): 1.8 | expression change (fold): Regenerating islet-derived 1 alpha (pancreatic stone protein, pancreatic thread protein) (Avge of clones): 3.0 | expression change (fold): Regulator of G protein signalling 16 (Avge of clones): 2.9 | expression change (fold): STAT induced STAT inhibitor 3 (Avge of clones): 10.7 | expression change (fold): Secreted phosphoprotein 1 (osteopontin, bone sialoprotein 1, early T-lymphocyte activation 1) (Avge of clones): 7.5 | expression change (fold): Serine (or cysteine) protease inhibitor, clade B (ovalbumin), member 3 (Avge of clones): 27.8 | expression change (fold): Small inducible cytokine A2 (monocyte chemotactic protein 1) (Avge of clones): 1.2 | expression change (fold): Solute carrier family 2 (facilitated glucose transporter), member 3 (Avge of clones): 2.3 | expression change (fold): Stanniocalcin 1 (Avge of clones): 3.7 | expression change (fold): Tyrosine phosphatase/TIGR = HG620-HT620 (Avge of clones): 1.2 | expression change (fold): v-fos FBJ murine osteosarcoma viral gene homologue (Avge of clones): 3.7 | expression change (fold): v-jun avian sarcoma virus 17 oncogene homologue (Avge of clones): 1.2 | expression change (fold): v-maf musculoaponeurotic fibrosarcoma oncogene homologue (avian) (Avge of clones): 3.0 | expression change (fold): Aquaporin 3 (Avge of clones, 2nd listing): 8.0 | expression change (fold): Fibronectin 1, isoform 1 preproprotein (Avge of clones, 2nd listing): 1.5 | expression change (fold): Insulin-like growth factor binding protein 3 (Avge of clones, 2nd listing): 2.0 | expression change (fold): Interleukin 8 (Avge of clones, 2nd listing): 0.9 | expression change (fold): Kynureninase (L-kynurenine hydrolase) (Avge of clones, 2nd listing): 1.5 | expression change (fold): Oncostatin M receptor (Avge of clones, 2nd listing): 1.9 | expression change (fold): Prostatic acid phosphatase precursor (Avge of clones, 2nd listing): 1.3 | expression change (fold): Secreted phosphoprotein 1 (osteopontin, bone sialoprotein 1, early T-lymphocyte activation 1) (Avge of clones, 2nd listing): 4.6 | expression change (fold): v-jun avian sarcoma virus 17 oncogene homologue (Avge of clones, 2nd listing): 1.5 | expression change (fold): Kynureninase (L-kynurenine hydrolase) (Avge of clones, 3rd listing): 1.7 | expression change (fold): Absent in melanoma 2 (Clone1): 2.7 | expression change (fold): Alpha-1-antichymotrypsin precursor (Clone1): 3.1 | expression change (fold): Aquaporin 3 (Clone1): 4.5 | expression change (fold): Brain-derived neurotrophic factor (Clone1): 4.8 | expression change (fold): CCAAT/enhancer binding protein (C/EBP), delta (Clone1): 3.9 | expression change (fold): Cathepsin L (Clone1): 2.3 | expression change (fold): Cytokine receptor-like factor 1 (Clone1): 3.0 | expression change (fold): Death-associated protein kinase 1 (Clone1): 3.5 | expression change (fold): Ephrin A1 precursor (Clone1): 1.3 | expression change (fold): Ets variant gene 6 (Clone1): 3.9 | expression change (fold): Fibronectin (Clone1): 0.9 | expression change (fold): Fibronectin 1, isoform 1 preproprotein (Clone1): 1.2 | expression change (fold): Glycine dehydrogenase (decarboxylating, glycine decdarboxylase, glycine cleavage system protein P) (Clone1): 2.5 | expression change (fold): I factor (complement) (Clone1): 2.5 | expression change (fold): Insulin-like growth factor binding protein 3 (Clone1): 2.6 | expression change (fold): Intercellular adhesion molecule 1 precursor (Clone1): 1.7 | expression change (fold): Interferon induced transmembrane protein 1 (9-27) (Clone1): 2.2 | expression change (fold): Interleukin 8 (Clone1): 0.4 | expression change (fold): Jun B proto-oncogene (Clone1): 2.7 | expression change (fold): KIAA0161 gene product (Clone1): 1.5 | expression change (fold): KIAA0303 protein (Clone1): 4.5 | expression change (fold): KIAA0500 protein (Clone1): 2.3 | expression change (fold): Killer cell lectin-like receptor subfamily C, member 2 (Clone1): 4.3 | expression change (fold): Killer cell lectin-like receptor subfamily C, member 3 isoform NKG2-E (Clone1): 6.7 | expression change (fold): Kynureninase (L-kynurenine hydrolase) (Clone1): 2.6 | expression change (fold): MHC class II transactivator (Clone1): 3.4 | expression change (fold): MHC, class II, DQ alpha 1 precursor (Clone1): 2.5 | expression change (fold): MHC, class II, DQ beta 1 (Clone1): 2.4
